Active and inactive are the calls of the source.
Experiments:
[1] = inhibitors of Bluetongue virus cytopathic effect, confirmation, arbovirus, BSR cells (AID 1250); type: functional;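 further: protection from viral cytopathic effect measured as cell viability by ATP luminescence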
[2] = target: Peroxisome proliferator-activated receptor gamma/Nuclear receptor coactivator 1 (Homo sapiens, UniProt P37231); type: functional;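 further: agonist potency as compounds enhance coactivator SRC-1 recruitment to PPARgamma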
[3] = target: Peroxisome proliferator-activated receptor gamma/Nuclear receptor coactivator 2 (Homo sapiens, UniProt P37231); type: functional;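 further: agonist potency for raising coactivator recruitment to the receptor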
[4] = target: Peroxisome proliferator-activated receptor gamma/Nuclear receptor coactivator 3 (Homo sapiens, UniProt P37231); type: functional;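 further: agonist potency for raising coactivator recruitment to the receptor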
Estrogen receptor beta [5] = target: T1, Estrogen receptor beta (Homo sapiens, UniProt Q92731);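 further: recombinant ER-beta bound to coactivator SRC1 peptide in presence of estradiol agonist; inhibitors block coactivator peptide binding and lower the FRET signal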
T1 sequence (Q92731 whole entry): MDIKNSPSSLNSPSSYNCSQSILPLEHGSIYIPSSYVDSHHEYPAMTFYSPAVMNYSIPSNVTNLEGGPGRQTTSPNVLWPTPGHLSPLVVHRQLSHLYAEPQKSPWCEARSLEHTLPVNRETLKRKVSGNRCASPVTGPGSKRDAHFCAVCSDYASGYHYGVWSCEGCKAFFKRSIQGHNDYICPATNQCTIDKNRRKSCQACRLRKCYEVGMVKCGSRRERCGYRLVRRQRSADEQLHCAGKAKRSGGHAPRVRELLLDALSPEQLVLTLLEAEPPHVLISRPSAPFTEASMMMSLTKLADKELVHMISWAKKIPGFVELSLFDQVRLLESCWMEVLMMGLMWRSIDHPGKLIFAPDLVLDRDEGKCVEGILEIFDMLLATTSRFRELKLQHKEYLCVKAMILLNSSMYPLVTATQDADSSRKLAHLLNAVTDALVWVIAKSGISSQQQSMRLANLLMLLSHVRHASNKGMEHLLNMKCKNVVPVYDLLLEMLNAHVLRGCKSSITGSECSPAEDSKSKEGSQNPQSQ

[6] = target: T2, Voltage-gated N-type calcium channel alpha-1B subunit/Amyloid beta A4 precursor protein-binding family A member 1 (Homo sapiens, UniProt Q00975+Q02410); experiment: disruptors of Mint-PDZ/N-type channel peptide interaction – biochemical, HTRF, SAR follow-up (AID 2489); type: functional
T2 sequence (Q00975 whole entry): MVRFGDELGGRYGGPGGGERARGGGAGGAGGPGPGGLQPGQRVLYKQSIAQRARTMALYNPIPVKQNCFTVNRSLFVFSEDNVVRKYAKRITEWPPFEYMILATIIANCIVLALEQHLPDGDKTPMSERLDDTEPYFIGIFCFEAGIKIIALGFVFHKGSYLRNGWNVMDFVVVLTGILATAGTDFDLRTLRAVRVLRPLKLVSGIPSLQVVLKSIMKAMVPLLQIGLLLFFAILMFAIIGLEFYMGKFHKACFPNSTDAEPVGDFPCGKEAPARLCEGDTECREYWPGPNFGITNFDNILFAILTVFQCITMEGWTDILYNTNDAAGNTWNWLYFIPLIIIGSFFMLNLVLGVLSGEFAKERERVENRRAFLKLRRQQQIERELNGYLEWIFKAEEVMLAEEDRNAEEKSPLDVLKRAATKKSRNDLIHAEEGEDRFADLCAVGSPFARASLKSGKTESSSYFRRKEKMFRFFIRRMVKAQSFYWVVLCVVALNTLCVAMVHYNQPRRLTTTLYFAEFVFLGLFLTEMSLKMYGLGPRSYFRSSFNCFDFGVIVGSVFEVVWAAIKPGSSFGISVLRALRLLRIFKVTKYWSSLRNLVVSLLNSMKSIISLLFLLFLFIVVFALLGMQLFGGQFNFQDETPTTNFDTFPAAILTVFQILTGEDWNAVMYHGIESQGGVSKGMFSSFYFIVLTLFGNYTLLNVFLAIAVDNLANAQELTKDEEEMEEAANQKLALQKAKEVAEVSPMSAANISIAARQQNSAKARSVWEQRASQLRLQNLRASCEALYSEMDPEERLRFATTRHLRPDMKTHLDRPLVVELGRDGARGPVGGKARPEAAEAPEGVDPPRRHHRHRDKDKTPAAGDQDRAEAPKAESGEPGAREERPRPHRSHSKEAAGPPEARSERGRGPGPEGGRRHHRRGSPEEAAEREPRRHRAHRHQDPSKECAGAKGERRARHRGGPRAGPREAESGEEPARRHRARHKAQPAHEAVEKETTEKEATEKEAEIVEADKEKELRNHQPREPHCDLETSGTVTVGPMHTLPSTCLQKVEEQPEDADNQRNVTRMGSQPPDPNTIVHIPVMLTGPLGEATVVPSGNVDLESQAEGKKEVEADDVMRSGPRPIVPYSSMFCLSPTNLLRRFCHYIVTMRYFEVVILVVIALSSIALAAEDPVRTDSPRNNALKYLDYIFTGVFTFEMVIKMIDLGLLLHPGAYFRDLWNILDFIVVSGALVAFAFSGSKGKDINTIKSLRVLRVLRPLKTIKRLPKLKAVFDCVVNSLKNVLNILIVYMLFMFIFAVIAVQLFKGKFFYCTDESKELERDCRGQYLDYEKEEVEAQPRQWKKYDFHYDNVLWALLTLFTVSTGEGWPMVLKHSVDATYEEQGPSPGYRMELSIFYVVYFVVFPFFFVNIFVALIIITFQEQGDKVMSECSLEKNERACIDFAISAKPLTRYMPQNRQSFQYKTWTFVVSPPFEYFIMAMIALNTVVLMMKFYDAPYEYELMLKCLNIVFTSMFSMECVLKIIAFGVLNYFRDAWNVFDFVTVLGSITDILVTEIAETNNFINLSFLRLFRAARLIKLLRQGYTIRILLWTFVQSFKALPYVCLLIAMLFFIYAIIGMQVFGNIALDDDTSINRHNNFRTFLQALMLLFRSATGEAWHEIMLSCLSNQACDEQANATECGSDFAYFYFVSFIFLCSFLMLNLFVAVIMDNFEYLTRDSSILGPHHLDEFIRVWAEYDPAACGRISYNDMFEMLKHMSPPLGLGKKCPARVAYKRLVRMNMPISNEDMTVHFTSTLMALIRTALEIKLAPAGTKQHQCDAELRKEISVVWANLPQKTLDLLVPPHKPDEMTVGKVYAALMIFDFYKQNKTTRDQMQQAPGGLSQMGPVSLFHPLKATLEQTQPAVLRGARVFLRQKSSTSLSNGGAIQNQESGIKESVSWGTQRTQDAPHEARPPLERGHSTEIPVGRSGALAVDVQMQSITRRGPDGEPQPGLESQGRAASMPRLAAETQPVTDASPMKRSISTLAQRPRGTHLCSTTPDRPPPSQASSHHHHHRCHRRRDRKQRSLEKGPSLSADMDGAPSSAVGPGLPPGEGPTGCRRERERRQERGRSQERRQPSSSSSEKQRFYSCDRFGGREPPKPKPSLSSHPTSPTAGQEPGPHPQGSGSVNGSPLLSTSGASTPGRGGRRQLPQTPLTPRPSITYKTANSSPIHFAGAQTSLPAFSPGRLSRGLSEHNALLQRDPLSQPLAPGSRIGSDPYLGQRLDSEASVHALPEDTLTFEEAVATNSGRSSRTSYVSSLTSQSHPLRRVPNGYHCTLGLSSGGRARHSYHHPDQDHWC
T2 sequence (Q02410 whole entry): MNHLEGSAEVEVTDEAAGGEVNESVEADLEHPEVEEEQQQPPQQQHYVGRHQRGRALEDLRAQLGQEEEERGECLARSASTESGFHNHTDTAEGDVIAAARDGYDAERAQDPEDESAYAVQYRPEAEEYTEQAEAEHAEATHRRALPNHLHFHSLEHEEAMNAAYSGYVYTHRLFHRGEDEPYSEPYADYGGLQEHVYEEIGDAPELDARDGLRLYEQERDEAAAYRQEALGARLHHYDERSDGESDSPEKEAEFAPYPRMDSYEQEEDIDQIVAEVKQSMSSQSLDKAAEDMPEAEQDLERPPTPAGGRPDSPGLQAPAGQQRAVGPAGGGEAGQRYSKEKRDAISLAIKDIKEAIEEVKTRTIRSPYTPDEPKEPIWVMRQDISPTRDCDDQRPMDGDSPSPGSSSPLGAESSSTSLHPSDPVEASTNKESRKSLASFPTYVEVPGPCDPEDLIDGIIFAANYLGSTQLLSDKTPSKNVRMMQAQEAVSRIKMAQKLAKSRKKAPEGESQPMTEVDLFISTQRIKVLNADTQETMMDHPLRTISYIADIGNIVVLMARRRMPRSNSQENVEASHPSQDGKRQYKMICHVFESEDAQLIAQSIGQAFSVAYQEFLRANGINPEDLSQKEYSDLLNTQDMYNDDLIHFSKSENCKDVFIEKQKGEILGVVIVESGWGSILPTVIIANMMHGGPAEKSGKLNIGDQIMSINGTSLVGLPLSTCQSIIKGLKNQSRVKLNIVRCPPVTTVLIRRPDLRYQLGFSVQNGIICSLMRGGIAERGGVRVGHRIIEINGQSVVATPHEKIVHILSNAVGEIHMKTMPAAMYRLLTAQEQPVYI

Estrogen receptor beta [7] = target: T1, Estrogen receptor beta; experiment: ERβ–SRC-3 coactivator interaction inhibitors, confirmation, orthogonal assay, biochemical, ELISA, streptavidin-HRP readout (AID 1060)
SUMO E1/E2 = SUMO E1/E2 (Homo sapiens, UniProt P63279+Q9UBE0+Q9UBT2); experiment: SAR analysis of SUMOylation using HTRF in an in-Vitro dose response assay. [Related pubchem assays (depositor defined):AID2006, AID2011, AID2018, AID2069, AID2658]; type: functional
Bcl-2-like protein 10 = target: T3, Bcl-2-like protein 10 (Homo sapiens, UniProt Q9HD36); experiment: displacers of TR3 peptide from Bcl-B, primary screen, selectivity assay for Bfl-1 inhibitor project, biochemical, fluorescence polarization, FITC-TR3 peptide (AID 748);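 further: fluorescence polarization from a fluorescein-labelled TR3 peptide binding purified Bcl-B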
T3 sequence (Q9HD36 whole entry): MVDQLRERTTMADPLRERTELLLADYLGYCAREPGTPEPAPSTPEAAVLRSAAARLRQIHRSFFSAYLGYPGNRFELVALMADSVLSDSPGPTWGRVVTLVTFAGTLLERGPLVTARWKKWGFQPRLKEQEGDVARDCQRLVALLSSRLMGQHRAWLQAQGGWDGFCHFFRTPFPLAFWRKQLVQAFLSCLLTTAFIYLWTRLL

[8] = target: T2, Voltage-gated N-type calcium channel alpha-1B subunit/Amyloid beta A4 precursor protein-binding family A member 1; experiment: disruptors of Mint-PDZ/N-type channel peptide interaction – biochemical, HTRF, set 2, SAR follow-up (AID 434980); type: functional
[9] = A High Throughput Confirmatory Assay used to Identify Novel Compounds that Inhibit Mycobacterium Tuberculosis in the absence of Glycerol.; type: functional
H4 = experiment: Luminescence Cell-Based Dose Response HTS to Identify Activators of 5'UTR Stem-Loop Driven Prion Protein mRNA Translation in H4 Neuroglioblastoma Cells. [Related pubchem assays: 1829 (Project Summary), 1814 (Primary HTS)]; type: functional; settings: Homo sapiens
HEK293 = experiment: Fluorescence-based counterscreen for potentiators or agonists of NPY-Y2: cell-based high-throughput dose response assay to identify inhibitors of cyclic nucleotide gated ion channel (CNGC) activity. In this assay, the parental HEK293 cell line transfected with a cyclic-nucleotide gated ion channel (CNGC)-based cAMP sensor is used to measure inhibition of isoproterenol-induced CNGC activity by test compound.; type: functional; settings: Homo sapiens;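 further: stimulus is 1 µM isoproterenol at EC100 plus PDE inhibitor Ro 20-1724 at 25 µM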
[10] = target: T4, Neuropeptide Y receptor type 2 (Homo sapiens, UniProt P49146); experiment: Fluorescence-based cell-based high-throughput dose response assay for agonists of NPY-Y2. [Related pubchem assays: 1703 (Screening assay (CNGC inhibitors).), 1359 (Screening assay (NPY-Y2 potentiators or agonists).), 1304 (Screening assay (NPY-Y1 potentiators or agonists).), 1710 (Screening assay (NPY-Y2 agonists).), 1791 (Summary AID.)]; type: functional
T4 sequence (P49146 whole entry): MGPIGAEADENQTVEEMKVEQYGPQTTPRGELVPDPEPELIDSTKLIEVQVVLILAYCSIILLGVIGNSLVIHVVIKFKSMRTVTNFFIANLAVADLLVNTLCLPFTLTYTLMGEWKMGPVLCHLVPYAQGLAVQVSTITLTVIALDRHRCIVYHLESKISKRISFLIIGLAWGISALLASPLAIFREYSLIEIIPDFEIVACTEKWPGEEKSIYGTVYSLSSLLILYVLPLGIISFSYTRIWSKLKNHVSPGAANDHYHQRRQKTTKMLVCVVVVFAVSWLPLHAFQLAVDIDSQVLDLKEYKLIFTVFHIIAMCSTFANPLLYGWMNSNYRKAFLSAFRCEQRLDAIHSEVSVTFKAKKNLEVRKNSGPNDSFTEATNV

[11] = HEp-2 cell cytotoxicity, dose response, cytotoxicity control for RSV inhibitor project, HTS (AID 2410); type: functional; settings: human respiratory syncytial virus
[12] = Luminescence Cell-Based Dose Confirmation HTS to Identify Activators of 5'UTR Stem-Loop Driven Alpha-Synuclein mRNA Translation in H4 Neuroglioblastoma Cells. [Related pubchem assays: 1829 (Project Summary), 1814 (Primary HTS)]; type: functional
[13] = target: T5, Neuropeptide Y receptor type 1 (Homo sapiens, UniProt P25929); experiment: Fluorescence-based counterscreen for agonists of NPY-Y2: cell-based high-throughput dose response assay for agonists of NPY-Y1.; type: functional
T5 sequence (P25929 whole entry): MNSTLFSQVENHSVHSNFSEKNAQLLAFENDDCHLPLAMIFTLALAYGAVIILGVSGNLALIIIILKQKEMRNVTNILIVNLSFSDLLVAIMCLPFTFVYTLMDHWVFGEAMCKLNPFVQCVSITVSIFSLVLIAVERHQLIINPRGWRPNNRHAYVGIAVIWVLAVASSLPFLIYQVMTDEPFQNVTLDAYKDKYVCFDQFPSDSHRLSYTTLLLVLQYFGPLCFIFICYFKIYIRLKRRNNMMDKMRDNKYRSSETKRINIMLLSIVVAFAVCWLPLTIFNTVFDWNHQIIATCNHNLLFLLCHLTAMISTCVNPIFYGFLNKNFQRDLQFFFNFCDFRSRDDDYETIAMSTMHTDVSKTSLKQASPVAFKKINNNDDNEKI

[14] = Luminescence Cell-Based Dose Response HTS to Identify Activators of Luciferase Translation or Activity in H4 […] Cells. [Related pubchem assays: 1829 (Project Summary), 1814 (Primary HTS)]; type: functional
[15] = microbe, parasite or virus in culture; type: functional; settings: Mycobacterium tuberculosis
Mucolipin-3 = Mucolipin-3 (Homo sapiens, UniProt Q8TDD5); experiment: Dose response cell-based high-throughput screening assay for agonists of the transient receptor potential channel ML3 (TRPML3). [Related pubchem assays: 1526, 1424, 1448 ]; type: functional
Chain of Mucolipin-3 (Q8TDD5 whole entry): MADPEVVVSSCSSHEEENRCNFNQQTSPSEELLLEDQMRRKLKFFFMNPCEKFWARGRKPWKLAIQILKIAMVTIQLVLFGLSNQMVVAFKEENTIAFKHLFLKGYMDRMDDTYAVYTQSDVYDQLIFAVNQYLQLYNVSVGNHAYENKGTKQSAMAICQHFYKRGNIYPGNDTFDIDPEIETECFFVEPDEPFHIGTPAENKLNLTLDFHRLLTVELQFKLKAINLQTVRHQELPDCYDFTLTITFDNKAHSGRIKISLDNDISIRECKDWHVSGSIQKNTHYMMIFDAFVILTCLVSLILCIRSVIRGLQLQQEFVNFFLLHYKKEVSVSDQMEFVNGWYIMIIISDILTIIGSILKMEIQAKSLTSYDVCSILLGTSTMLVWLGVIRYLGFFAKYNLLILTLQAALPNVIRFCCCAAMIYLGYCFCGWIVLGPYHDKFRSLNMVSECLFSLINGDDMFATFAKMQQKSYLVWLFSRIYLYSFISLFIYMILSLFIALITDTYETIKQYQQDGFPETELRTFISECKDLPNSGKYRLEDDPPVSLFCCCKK

Ion channel NompC = Ion channel NompC (Danio rerio, UniProt Q7T1G6); experiment: Fluorescence counterscreen assay for TRPML3 agonists: dose response cell-based high-throughput screening assay to identify agonists of the transient receptor potential channel N1 (TRPN1). [Related pubchem assays: 1526, 1424, 1448 ]; type: functional

CCOC(=O)c1cnc2c(-c3ccc(F)cc3)cnn2c1C(F)(F)F
IC50 [1]: 23.1 µM (active)

Cc1nn(Cc2c(F)cccc2Cl)c(C)c1[N+](=O)[O-]
EC50 [2]: > 79.4 µM (not active) | EC50 [3]: > 79.4 µM (not active) | EC50 [4]: > 79.4 µM (not active)

O=C(Nc1ccccc1N1CCOCC1)c1cc(-c2ccco2)nc2ccccc12
IC50 (Estrogen receptor beta [5]): 3.78 µM (active) | IC50 [6]: 39.3 µM (active) | IC50 (Estrogen receptor beta [7]): 1.04 µM (not active) | IC50 (SUMO E1/E2): 48.2 µM (active) | IC50 (Bcl-2-like protein 10): 95.1 µM (inactive) | IC50 [8]: 9.81 µM (active)

Cn1c(=O)n(Cc2ccccc2)c(=O)c2c1nc1n2CCCN1C1CCCCC1
IC50 [9]: > 100 µM (active)

CCn1c2ccccc2c2cc(NC(=O)CN(C)CC(=O)Nc3ccc(N4CCOCC4)cc3)ccc21
EC50 (H4): > 120 µM (not active) | EC50 (HEK293): > 35.4 µM (not active) | EC50 [10]: > 35.4 µM (not active) | CC50 [11]: 32.7 µM (active) | EC50 [12]: > 120 µM (not active) | EC50 [13]: > 35.4 µM (not active) | EC50 [14]: > 120 µM (not active) | CC50 [15]: 37.5 µM (active)

COc1ccc([C@H]2CC(=O)C=C(c3ccc4c5c(cccc35)CC4)C2)cc1
IC50 [9]: > 100 µM (active) | CC50 [15]: > 40 µM (active)

N#Cc1cc(O)c(-n2nnc3ccccc32)cc1C#N
EC50 [2]: > 79.4 µM (not active) | EC50 [3]: > 79.4 µM (not active) | EC50 [4]: > 79.4 µM (not active)

CN(c1ccccc1)S(=O)(=O)c1cccc(Cl)c1Cl
EC50 (Mucolipin-3): 4.52 µM (active) | EC50 (Ion channel NompC): > 29.9 µM (not active)

Source: ChEMBL document CHEMBL1201862, “PubChem BioAssay data set” (2004)
